Source: patent publication US20230148599A1, “FUNGICIDAL MIXTURES CONTAINING PYRAZOLE DERIVATIVES” (FMC Corporation, priority 2020, published 2023)

Tests used:
Type in all cases: in vivo
Settings in all cases: 50 ppm, 100 = 100% disease control, 0 = no control
[1] = system: Puccinia recondita f. sp. tritici; test: Test B: wheat leaf rust, preventive spray on wheat seedlings
How it was run: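 Wheat seedlings were sprayed to run-off with compound suspended at ppm concentrations in acetone/water containing 250 ppm PEG400. The next day they were inoculated with Puccinia recondita f. sp. tritici spores, held saturated at 20 °C for 24 h, then kept 7 days at 20 °C. Disease control was rated 0–100% relative to untreated controls.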

Phakopsora pachyrhizi = test: Test D: Asian soybean rust, preventive spray on soybean seedlings
How it was run: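 Compounds in acetone/water (50/50) with 250 ppm PEG400, dosed in ppm, sprayed to run-off on soybean seedlings; inoculated with P. pachyrhizi spores next day. Held 24 h at 22 °C in saturated air, then 8 days at 22 °C; visual rating of disease control, 0–100, relative to untreated controls.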

[2] = system: Blumeria graminis f. sp. tritici; test: Test C: wheat powdery mildew, preventive spray on wheat seedlings
From the text: General protocol for preparing test suspensions for Tests A-F: the test compounds were first dissolved in acetone in an amount equal to 3% of the final volume and then suspended at the desired concentration (in ppm) in acetone and purified water (50/50 mix by volume) containing 250 ppm of the surfactant PEG400 (polyhydric alcohol esters). The resulting test suspensions were then used in Tests A-F.
The test suspension was sprayed to the point of run-off on wheat seedlings. The following day the seedlings were inoculated with a spore dust of Blumeria graminis f. sp. tritici, (also known as Erysiphe graminis f. sp. tritici, the causal agent of wheat powdery mildew) and incubated in a growth chamber at 20° C. for 8 days, after which time visual disease ratings were made.
A rating of 100 indicates 100% disease control and a rating of 0 indicates no disease control (relative to the controls). A dash (−) indicates the compound was not tested.

Septoria tritici = test: Test A: wheat leaf blotch, preventive spray on wheat seedlings
How it was run: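 Wheat seedlings sprayed to run-off with compound suspended in acetone/water with 250 ppm PEG400 surfactant, inoculated next day with Septoria tritici spores. Held 48 h saturated at 24 °C, then 17 days at 20 °C; disease rated 0–100% control relative to controls.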

Alternaria solani = test: Test F: tomato early blight, preventive spray on tomato seedlings
How it was run: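 Tomato seedlings were sprayed to run-off with compound suspended in acetone/water (50/50) with 250 ppm PEG400 and inoculated with Alternaria solani spores the next day. Plants were held 48 h at 27 °C in saturated humidity, then 3 days at 20 °C. Disease control was rated visually from 0 to 100 against untreated controls.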

Botrytis cinerea = test: Test E: tomato Botrytis, preventive spray on tomato seedlings
How it was run: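 Compound suspended in 50/50 acetone/water with 250 ppm PEG400 surfactant and sprayed to run-off on tomato seedlings; Botrytis cinerea spores applied the next day. Incubation 48 h at 20° C in saturated atmosphere, then 3 days at 24° C. Visual rating 0–100% disease control relative to controls.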

## Cc1nn(C)c(Nc2c(F)cccc2[N+](=O)[O-])c1-c1c(Cl)cccc1Cl [compound 53]
[1]
  Test B disease control rating: 100%
Phakopsora pachyrhizi
  Test D disease control rating: 0%
[2]
  Test C disease control rating: 98%
Septoria tritici
  Test A disease control rating: 100%
Alternaria solani
  Test F disease control rating: 98%
Botrytis cinerea
  Test E disease control rating: 98%

## Cc1nn(C)c(Nc2ccc(F)cc2[N+](=O)[O-])c1-c1c(Cl)cccc1Cl [compound 54]
[1]
  Test B disease control rating: 91%
Phakopsora pachyrhizi
  Test D disease control rating: 0%
[2]
  Test C disease control rating: 93%
Septoria tritici
  Test A disease control rating: 100%
Alternaria solani
  Test F disease control rating: 0%
Botrytis cinerea
  Test E disease control rating: 21%

## Cc1nn(C)c(Nc2c(Cl)cc(Br)cc2[N+](=O)[O-])c1-c1ccc(F)cc1F [compound 55]
[1]
  Test B disease control rating: 99%
Phakopsora pachyrhizi
  Test D disease control rating: 0%
[2]
  Test C disease control rating: 90%
Septoria tritici
  Test A disease control rating: 100%
Alternaria solani
  Test F disease control rating: 0%
Botrytis cinerea
  Test E disease control rating: 34%

## Cc1nn(C)c(Nc2c(F)cc(Br)cc2[N+](=O)[O-])c1-c1ccc(F)cc1F [compound 56]
[1]
  Test B disease control rating: 100%
Phakopsora pachyrhizi
  Test D disease control rating: 65%
[2]
  Test C disease control rating: 100%
Septoria tritici
  Test A disease control rating: 100%
Alternaria solani
  Test F disease control rating: 99%
Botrytis cinerea
  Test E disease control rating: 99%

## Cc1nn(C)c(Nc2c(F)cc(F)cc2[N+](=O)[O-])c1-c1ccc(F)cc1F [compound 58]
[1]
  Test B disease control rating: 100%
Phakopsora pachyrhizi
  Test D disease control rating: 36%
[2]
  Test C disease control rating: 99%
Septoria tritici
  Test A disease control rating: 100%
Alternaria solani
  Test F disease control rating: 99%
Botrytis cinerea
  Test E disease control rating: 99%

## Cc1nn(C)c(Nc2c(Cl)cc(Cl)cc2[N+](=O)[O-])c1-c1ccc(F)cc1Cl [compound 59]
[1]
  Test B disease control rating: 100%
Phakopsora pachyrhizi
  Test D disease control rating: 96%
[2]
  Test C disease control rating: 99%
Septoria tritici
  Test A disease control rating: 100%
Alternaria solani
  Test F disease control rating: 92%
Botrytis cinerea
  Test E disease control rating: 99%

## Cc1nn(C)c(Nc2c(F)cccc2[N+](=O)[O-])c1-c1c(F)cc(F)cc1F [compound 62]
[1]
  Test B disease control rating: 100%
Phakopsora pachyrhizi
  Test D disease control rating: 100%
[2]
  Test C disease control rating: 100%
Septoria tritici
  Test A disease control rating: 100%
Alternaria solani
  Test F disease control rating: 99%
Botrytis cinerea
  Test E disease control rating: 99%

## Cc1nn(C)c(Nc2c(F)cccc2[N+](=O)[O-])c1-c1c(F)cccc1F [compound 63]
[1]
  Test B disease control rating: 99%
Phakopsora pachyrhizi
  Test D disease control rating: 0%
[2]
  Test C disease control rating: 86%
Septoria tritici
  Test A disease control rating: 100%
Alternaria solani
  Test F disease control rating: 96%
Botrytis cinerea
  Test E disease control rating: 100%

## COc1ccc(-c2c(C)nn(C)c2Nc2c(F)cc(F)cc2[N+](=O)[O-])c(Cl)c1 [compound 64]
[1]
  Test B disease control rating: 100%
Phakopsora pachyrhizi
  Test D disease control rating: 97%
[2]
  Test C disease control rating: 98%
Septoria tritici
  Test A disease control rating: 100%
Alternaria solani
  Test F disease control rating: 99%
Botrytis cinerea
  Test E disease control rating: 98%

## COc1ccc(-c2c(C)nn(C)c2Nc2c(Cl)cc(Cl)cc2[N+](=O)[O-])c(Cl)c1 [compound 65]
[1]
  Test B disease control rating: 89%
Phakopsora pachyrhizi
  Test D disease control rating: 66%
[2]
  Test C disease control rating: 56%
Septoria tritici
  Test A disease control rating: 94%
Alternaria solani
  Test F disease control rating: 46%
Botrytis cinerea
  Test E disease control rating: 16%

## COc1ccc(-c2c(C)nn(C)c2Nc2c(Cl)cc(C)cc2[N+](=O)[O-])c(Cl)c1 [compound 66]
[1]
  Test B disease control rating: 100%
Phakopsora pachyrhizi
  Test D disease control rating: 97%
[2]
  Test C disease control rating: 98%
Septoria tritici
  Test A disease control rating: 100%
Alternaria solani
  Test F disease control rating: 96%
Botrytis cinerea
  Test E disease control rating: 98%

## Cc1nn(C)c(Nc2c(Cl)cc(F)cc2[N+](=O)[O-])c1-c1ccc(F)cc1F [compound 67]
[1]
  Test B disease control rating: 100%
Phakopsora pachyrhizi
  Test D disease control rating: 69%
[2]
  Test C disease control rating: 89%
Septoria tritici
  Test A disease control rating: 100%
Alternaria solani
  Test F disease control rating: 33%
Botrytis cinerea
  Test E disease control rating: 98%

## Cc1nn(C)c(Nc2c(F)cccc2[N+](=O)[O-])c1-c1ccc(Cl)cc1Cl [compound 69]
[1]
  Test B disease control rating: 100%
Phakopsora pachyrhizi
  Test D disease control rating: 77%
[2]
  Test C disease control rating: 97%
Septoria tritici
  Test A disease control rating: 100%
Alternaria solani
  Test F disease control rating: 99%
Botrytis cinerea
  Test E disease control rating: 100%

## COc1cc(F)c(-c2c(C)nn(C)c2Nc2c(F)cccc2[N+](=O)[O-])c(F)c1 [compound 70]
[1]
  Test B disease control rating: 100%
Phakopsora pachyrhizi
  Test D disease control rating: 84%
[2]
  Test C disease control rating: 99%
Septoria tritici
  Test A disease control rating: 100%
Alternaria solani
  Test F disease control rating: 99%
Botrytis cinerea
  Test E disease control rating: 99%

## CCn1nc(C)c(-c2ccc(F)cc2Cl)c1Nc1c(F)cccc1[N+](=O)[O-] [compound 71]
[1]
  Test B disease control rating: 100%
Phakopsora pachyrhizi
  Test D disease control rating: 82%
[2]
  Test C disease control rating: 99%
Septoria tritici
  Test A disease control rating: 100%
Alternaria solani
  Test F disease control rating: 98%
Botrytis cinerea
  Test E disease control rating: 99%

## COc1ccc(-c2c(C)nn(C)c2Nc2ccc(Cl)cc2[N+](=O)[O-])c(Cl)c1 [compound 74]
[1]
  Test B disease control rating: 86%
Phakopsora pachyrhizi
  Test D disease control rating: 74%
[2]
  Test C disease control rating: 81%
Septoria tritici
  Test A disease control rating: 99%
Alternaria solani
  Test F disease control rating: 85%
Botrytis cinerea
  Test E disease control rating: 99%

## Cc1nn(C)c(Nc2c(F)cc(F)cc2[N+](=O)[O-])c1-c1c(F)cccc1F [compound 75]
[1]
  Test B disease control rating: 99%
Phakopsora pachyrhizi
  Test D disease control rating: 0%
[2]
  Test C disease control rating: 90%
Septoria tritici
  Test A disease control rating: 100%
Alternaria solani
  Test F disease control rating: 98%
Botrytis cinerea
  Test E disease control rating: 57%

## Cc1nn(C)c(Nc2c(Cl)cc(F)cc2[N+](=O)[O-])c1-c1c(F)cccc1F [compound 76]
[1]
  Test B disease control rating: 99%
Phakopsora pachyrhizi
  Test D disease control rating: 25%
[2]
  Test C disease control rating: 95%
Septoria tritici
  Test A disease control rating: 100%
Alternaria solani
  Test F disease control rating: 0%
Botrytis cinerea
  Test E disease control rating: 87%

## Cc1nn(C)c(Nc2c(Cl)cccc2[N+](=O)[O-])c1-c1c(F)cccc1F [compound 77]
[1]
  Test B disease control rating: 100%
Phakopsora pachyrhizi
  Test D disease control rating: 73%
[2]
  Test C disease control rating: 95%
Septoria tritici
  Test A disease control rating: 100%
Alternaria solani
  Test F disease control rating: 9%
Botrytis cinerea
  Test E disease control rating: 72%

## Cc1nn(C)c(Nc2ccc(Cl)cc2[N+](=O)[O-])c1-c1ccc(F)cc1F [compound 78]
[1]
  Test B disease control rating: 89%
Phakopsora pachyrhizi
  Test D disease control rating: 0%
[2]
  Test C disease control rating: 95%
Septoria tritici
  Test A disease control rating: 100%
Alternaria solani
  Test F disease control rating: 0%
Botrytis cinerea
  Test E disease control rating: 68%

## Cc1nn(C)c(Nc2c(Cl)cccc2[N+](=O)[O-])c1-c1ccc(F)cc1F [compound 79]
[1]
  Test B disease control rating: 100%
Phakopsora pachyrhizi
  Test D disease control rating: 44%
[2]
  Test C disease control rating: 91%
Septoria tritici
  Test A disease control rating: 100%
Alternaria solani
  Test F disease control rating: 0%
Botrytis cinerea
  Test E disease control rating: 98%

## COc1cc(Cl)c(Nc2c(-c3ccc(F)cc3Cl)c(C)nn2C)c([N+](=O)[O-])c1 [compound 80]
[1]
  Test B disease control rating: 100%
Phakopsora pachyrhizi
  Test D disease control rating: 50%
[2]
  Test C disease control rating: 97%
Septoria tritici
  Test A disease control rating: 100%
Alternaria solani
  Test F disease control rating: 98%
Botrytis cinerea
  Test E disease control rating: 95%

## COc1ccc(-c2c(C)nn(C)c2Nc2c(F)cc(Cl)cc2[N+](=O)[O-])c(Cl)c1 [compound 81]
[1]
  Test B disease control rating: 99%
Phakopsora pachyrhizi
  Test D disease control rating: 0%
[2]
  Test C disease control rating: 89%
Septoria tritici
  Test A disease control rating: 100%
Alternaria solani
  Test F disease control rating: 99%
Botrytis cinerea
  Test E disease control rating: 95%

## COc1cc(F)c(-c2c(C)nn(C)c2Nc2c(Cl)cc(Cl)cc2[N+](=O)[O-])c(F)c1 [compound 82]
[1]
  Test B disease control rating: 100%
Phakopsora pachyrhizi
  Test D disease control rating: 59%
[2]
  Test C disease control rating: 58%
Septoria tritici
  Test A disease control rating: 100%
Alternaria solani
  Test F disease control rating: 97%
Botrytis cinerea
  Test E disease control rating: 96%

## COc1cc(F)c(-c2c(C)nn(C)c2Nc2ccc(F)cc2[N+](=O)[O-])c(F)c1 [compound 83]
[1]
  Test B disease control rating: 91%
Phakopsora pachyrhizi
  Test D disease control rating: 0%
[2]
  Test C disease control rating: 99%
Septoria tritici
  Test A disease control rating: 99%
Alternaria solani
  Test F disease control rating: 99%
Botrytis cinerea
  Test E disease control rating: 98%
